Experimental data published in paper PMC3809593 (BioMed Research International, 2013).
Where “and” joins values, the source holds several entries; their conditions need not be identical. Identical values can stand only once. Entries after “also recorded” stand apart in the source; their conditions may differ. Ends that are not written are not given here.

Legend:
[1] = tested on: MDA-MB-231 (breast adenocarcinoma) tumour cell line; assay: MTT viability assay (cytostasis %); format: cell-based, human; details: MDA-MB-231, 72 h incubation in RPMI, mean of three absorbance readings
Experimental: (§1) Consecutive peptide dilutions with RPMI 1640 (Sigma Aldrich) were used, whereas the working concentrations were 120 μM, 60 μM, 30 μM, 15 μM, 7.5 μM, 3.5 μM, 1.8 μM, and 0.9 μM in a final volume of 200 μL/well. […] Everything was treated in a sterile fashion.
(§2) We analysed the cytotoxicity of the peptide chosen for our study in relation to two adherent tumour cell lines: MDA-MB-231 (breast adenocarcinoma) and M14K (human mesothelioma). These lines were cultivated in the same conditions as those used for the optimization of the number of target cells. The negative control was represented by target cells incubated without peptide. Viability was analysed after 72 h of incubation at 37°C, 5% CO2, by two methods: MTT colorimetric assay [3-(4,5-dimethylthiazol-2-yl)-2,5-diphenyltetrazolium bromide] and flow cytometry using PE Annexin V (BD Pharmingen) and 7-AAD (7-aminoactinomycin D).
(§3) [3-(4,5-Dimethylthiazol-2-yl)-2,5-diphenyltetrazolium Bromide] […] Absorbance was measured at 570 nm against a 620 nm reference wavelength using a Tecan Sunrise plate reader. Relying on the absorbance values read in the cells incubated with the peptide studied (A peptide cells) and depending on the absorbance value read in peptide-free cells (A negative control), we calculated the cytostasis percentage, that is, the percentage of cells affected by apoptosis of the whole number of cells in any of the wells analysed. […]

[2] = tested on: MDA-MB-231 (breast adenocarcinoma) tumour cell line; assay: PE Annexin V / 7-AAD flow cytometry apoptosis assay; format: cell-based, human; details: MDA-MB231, 72 h in RPMI, 5000 events/well; for Q1—dead cells (7-AAD+): negative control 1.8; for Q2—late apoptosis cells (7-AAD+ Annexin V+): negative control 3; for Q4—early apoptosis cells (Annexin V+ 7-AAD−): negative control 4.7; for Q3—living cells (7-AAD− Annexin V−): negative control 90.5
Experimental: as §2
(§4) PE Annexin V and 7-AAD (7-Aminoactinomycin D) (BD Pharmingen) Viability Assay. This assay was used to detect and measure the apoptotic process by means of flow cytometry. Apoptosis is characterized by cell morphology changes, nuclear condensation, pyknosis, and also by a series of biochemical events causing mitochondrial membrane and nuclear DNA degradation. Phosphatidylserine, which is normally present in the inner layer of the lipid bilayer of the cell membrane, is exposed at the surface of the cells undergoing various stages of apoptosis. Annexin V has great affinity to phosphatidylserine residue, and 7-AAD was used as vital nuclear DNA stain. 96-well cell culture plates were used in our study. The first (1) and last (12) columns of wells only contained culture medium (RPMI 1640) in order to prevent the edge effect. Columns 2 and 11 of wells only contained peptide-free cell suspension (negative control). Columns 3–10 contained target cells and consecutive peptide dilutions. We worked in triplicate for the two cell lines and all the peptide concentrations we used. After 72 h of incubation at 37°C, 5% CO2, adherent cells were detached by trypsination (3–10 minutes of incubation at 37°C with Eurobio trypsin). The cell suspension was distributed in such a manner that each FACS tube had 1 × 10^5 cells. 3 FACS tubes were assessed; the first FACS tube contained unmarked cells, the second FACS tube contained Annexin V PE, and the third FACS tube contained Annexin V PE/7-AAD. Data collection and interpretation were done on a FACS Canto II flow cytometer using the FACSDiva Software (Becton Dickinson) (Figure 3).
Flow cytometry allowed apoptosis assessment for the MDA-MB-231 cell line incubated with the […]. 5000 events/well were acquired, and the results were compared with the viability of the peptide-free cells (negative control).

[3] = tested on: M14K (human mesothelioma) tumour cell line; assay: MTT viability assay (cytostasis %); format: cell-based; details: 72 h incubation in RPMI, mean of three absorbance readings
Experimental: as §1, §2, §3

MCF7 tumour cell line = details: cited from earlier work
Text: MDA-MB-231 is an adherent breast adenocarcinoma cell line, one of the three known breast cancer cell lines: MCF-7, MDA-MB-231, and T-47D [18, 19].

[4] = at its effective antimicrobial concentrations; cited from earlier work
Text: This peptide is water soluble and nonhaemolytic at its effective and amphiphilic antimicrobial concentrations. At small concentrations, it inhibits the growth of numerous species of bacteria and fungi, and it induces osmotic lysis in protozoa ...

[5] = tested on: M14K (human mesothelioma) tumour cell line; assay: PE Annexin V / 7-AAD flow cytometry apoptosis assay; format: cell-based; details: for Q1 (7-AAD+) dead cells / Q2 (7-AAD+ Annexin V+) late apoptotic cells / Q4 (Annexin V+ 7AAD−) early apoptotic cells: 72 h in RPMI, 5000 events/well; for Q1 (7-AAD+) dead cells: negative control 2.1; for Q2 (7-AAD+ Annexin V+) late apoptotic cells: negative control 3.8; for Q4 (Annexin V+ 7AAD−) early apoptotic cells: negative control 4.5
Experimental: as §2, §4

[6] = cited from earlier work
Text: This peptide is water soluble and nonhaemolytic at its effective and amphiphilic antimicrobial concentrations. At small concentrations, it inhibits the growth of numerous species of bacteria and fungi, and it induces osmotic lysis in protozoa ... || According to the product specifications, this peptide is soluble in distilled water with 0.1% TFA. As the solution is meant to be inserted into cell culture medium, we have chosen RPMI as the most suitable medium. This medium also allowed us to maintain an optimum pH (7.2–7.4) as we inserted the peptide solution. The extemporaneous peptide solution was utilized immediately after preparation.

Sequence: GIGKFLHSAKKFGKAFVGEIMNS [Magainin II]
- cytostasis % (MTT test) ([1]; 15 μM peptide): absent
- cytostasis % (MTT test) ([1]; 30 μM peptide): persisted; also recorded: significantly lower
- Q1—dead cells (7-AAD+) ([2]; 60 μM peptide): 0.8%
- Q2—late apoptosis cells (7-AAD+ Annexin V+) ([2]; 60 μM peptide): 19.6%
- Q4—early apoptosis cells (Annexin V+ 7-AAD−) ([2]; 60 μM peptide): 3.4%
- Q3—living cells (7-AAD− Annexin V−) ([2]; 60 μM peptide): 76.2%
- Q1—dead cells (7-AAD+) ([2]; 120 μM peptide): 1.4%
- Q2—late apoptosis cells (7-AAD+ Annexin V+) ([2]; 120 μM peptide): 47.5%
- Q4—early apoptosis cells (Annexin V+ 7-AAD−) ([2]; 120 μM peptide): 14.8%
- Q3—living cells (7-AAD− Annexin V−) ([2]; 120 μM peptide): 36.3%
- cytostasis % (MTT test) ([3]; 15 μM peptide): absent
- cytostasis % (MTT test) ([3]; 30 μM peptide): significantly lower
- concentration with cytotoxic effect (MCF7 tumour cell line): exceed 200 μg/mL and > 80 μM
- haemolysis [4]: nonhaemolytic
- Q1 (7-AAD+) dead cells ([5]; 60 μM peptide): 0.3%
- Q2 (7-AAD+ Annexin V+) late apoptotic cells ([5]; 60 μM peptide): 8.6%
- Q4 (Annexin V+ 7AAD−) early apoptotic cells ([5]; 60 μM peptide): 5.9%
- Q1 (7-AAD+) dead cells ([5]; 120 μM peptide): 2.8%
- Q2 (7-AAD+ Annexin V+) late apoptotic cells ([5]; 120 μM peptide): 47.8%
- Q4 (Annexin V+ 7AAD−) early apoptotic cells ([5]; 120 μM peptide): 13.5%
- cell population that underwent apoptosis ([5]; 72 h, flow cytometry PE Annexin V/7-AAD, concentration not stated in the sentence (values match 120 μM)): over 50%
- solubility in water [6]: water soluble
- solubility ([6]; distilled water with 0.1% TFA, ref product specifications (SIGMA M7402-1MG)): soluble
